EC50 data for 14 compounds are collected here from patent US10800772B2 (Gilead Sciences, Inc., priority 2016, dated 2020).

Type in all cases: cell-based, HIV-1
The test system of experiment [1] is HIV-IIIb (wildtype). As to the kind of experiment: Antiviral assay in MT4 cells, HIV-IIIb wildtype. Conditions: Human immunodeficiency virus 1, IIIB, MT4, 120 h, read-out: WT EC50. The method, boiled down:
(§1)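 MT4 cells were pre-infected for 3 h at 37 °C with HIV-IIIb (0.004 m.o.i.), then plated at 2000 cells per well with 3-fold serially diluted compound (10 concentrations, quadruplicate). After 5 days at 37 °C, CellTiter-Glo luminescence was read, and EC50 was taken as the concentration giving a 50% decrease in signal.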

Experiment [2] relates to HIV-IIIb IN T174I DE. As to the kind of experiment: Antiviral assay in MT4 cells, HIV-IIIb IN T174I DE virus (from dose escalation passaging). Conditions: Human immunodeficiency virus 1, IIIB, MT4, 120 h, read-out: T174I DE EC50, MT4 cells, HIV-IIIb IN T174I DE (dose escalation), 5 days, CellTiter-Glo. The method, boiled down: as §1
In general terms: Cellular ATP, detected with luciferase, serves as a proxy for viable cell number.

In experiment [3] the test system is HIV-IIIb IN T174I BT. Put plainly: Antiviral assay in MT4 cells, HIV-IIIb IN T174I BT virus (from viral breakthrough). Conditions: Human immunodeficiency virus 1, IIIB, MT4, 120 h, read-out: T174I BT EC50, MT4 cells, HIV-IIIb IN T174I BT (viral breakthrough), 5 days, CellTiter-Glo. The method, boiled down: as §1

Turning to `Cc1cc2nc(-c3ccc4c(n3)c(C3CCN(C5CC5)CC3)nn4C)sc2c(-c2ccc(Cl)cc2)c1[C@H](OC(C)(C)C)C(=O)O` [Compound 187, (S)-2-(tert-butoxy)-2-(7-(4-chloro-phenyl)-2-(3-(1-cyclopropyl-piperidin-4-yl)-1-methyl-1H-pyrazolo[4,3-b]pyridin-5-yl)-5-methylbenzo[d]thiazol-6-yl) acetic acid], the EC50 was 4 nM in experiment [1], 844 nM in experiment [2] and 339 nM in experiment [3].

On to `Cc1cc2nc(-c3ccc4c(c3)c(C3CCN(C5CN(C(=O)OC(C)(C)C)C5)CC3)nn4C)sc2c(-c2ccc(Cl)cc2)c1[C@H](OC(C)(C)C)C(=O)O` [Compound 28, (S)-2-(tert-butoxy)-2-(2-(3-(1-(1-(tert-butoxycarbonyl)azetidin-3-yl)piperidin-4-yl)-1-methyl-1H-indazol-5-yl)-7-(4-chlorophenyl)-5-methylbenzo[d]thiazol-6-yl)acetic Acid], for which the values for the EC50 in experiment [1], in experiment [2] and in experiment [3] were 73 nM, 2260 nM and 1800 nM, respectively.

`CCOC(=O)N1CCC(c2nn(C)c3ccc(-c4nc5cc(C)c([C@H](OC(C)(C)C)C(=O)O)c(-c6ccc(Cl)cc6)c5s4)cc23)CC1` [Compound 24]: the EC50 was 16 nM in experiment [1], 1090 nM in experiment [2] and 769 nM in experiment [3].

In the case of `Cc1cc2nc(-c3ccc4[nH]nc(C5CCN(C6COC6)CC5)c4n3)sc2c(-c2ccc(Cl)cc2)c1[C@H](OC(C)(C)C)C(=O)O` [Compound 174, (S)-2-(tert-butoxy)-2-(7-(4-chloro-phenyl)-5-methyl-2-(3-(1-(oxetan-3-yl)piperidin-4-yl)-1H-pyrazolo [4,3-b]pyridin-5-yl)benzo[d]thiazol-6-yl)acetic acid], the EC50 in experiment [1] was 11 nM; in experiment [2] it was 587 nM; in experiment [3], 219 nM.

As to `Cc1cc2nc(-c3ccc4c(c3)c(N3CCN5CCOC[C@@H]5C3)nn4C)sc2c(-c2ccc(Cl)cc2)c1[C@H](OC(C)(C)C)C(=O)O` [Compound 4, (S)-2-(tert-butoxy)-2-(7-(4-chlorophenyl)-2-(3-((S)-hexahydropyrazino[2,1-c][1,4]oxazin-8(1H)-yl)-1-methyl-1H-indazol-5-yl)-5-methylbenzo[d]thiazol-6-yl)acetic Acid], the EC50 was determined as 10 nM in experiment [1], 1740 nM in experiment [2] and 1270 nM in experiment [3].

With `Cc1cc2nc(-c3ccc4c(c3)c(N3CCCN(C)CC3)nn4C)sc2c(-c2ccc(Cl)cc2)c1[C@H](OC(C)(C)C)C(=O)O` [Compound 132, (S)-2-(tert-butoxy)-2-(7-(4-chloro-phenyl)-5-methyl-2-(1-methyl-3-(4-methyl-1,4-diazepan-1-yl)-1H-indazol-5-yl)benzo[d]thiazol-6-yl)acetic acid], the values for the EC50 in experiment [1], in experiment [2] and in experiment [3] were 25 nM, 1680 nM and 1100 nM, respectively.

Take `COCCN1CCN(c2nn(C)c3ccc(-c4nc5cc(C)c([C@H](OC(C)(C)C)C(=O)O)c(-c6ccc(Cl)cc6)c5s4)cc23)C1=O` [Compound 79, (S)-2-(tert-butoxy)-2-(7-(4-chlorophenyl)-2-(3-(3-(2-methoxyethyl)-2-oxoimidazolidin-1-yl)-1-methyl-1H-indazol-5-yl)-5-methylbenzo[d]thiazol-6-yl)acetic acid]: the EC50 was determined as 7 nM in experiment [1], 2180 nM in experiment [2] and 2320 nM in experiment [3].

With `CC(=O)N1CC(N2CCC(c3nn(C)c4ncc(-c5nc6cc(C)c([C@H](OC(C)(C)C)C(=O)O)c(-c7ccc(Cl)cc7)c6s5)nc34)CC2)C1` [Compound 120, (S)-2-(2-(3-(1-(1-acetylazetidin-3-yl)piperidin-4-yl)-1-methyl-1H-pyrazolo[3,4-b]pyrazin-5-yl)-7-(4-chlorophenyl)-5-methylbenzo[d]thiazol-6-yl)-2-(tert-butoxy)acetic acid], the EC50 worked out at 3 nM in experiment [1], 217 nM in experiment [2] and 185 nM in experiment [3].

With `Cc1cc2nc(-c3ccc4c(c3)c(N3CCN5C(=O)COC[C@@H]5C3)nn4C)sc2c(-c2ccc(Cl)cc2)c1[C@H](OC(C)(C)C)C(=O)O` [Compound 138, (S)-2-(tert-butoxy)-2-(7-(4-chloro-phenyl)-5-methyl-2-(1-methyl-3-((S)-4-oxohexa-hydropyrazino[2,1-c][1,4]oxazin-8 (1H)-yl)-1H-indazol-5-yl)benzo[d]thiazol-6-yl)acetic acid], the EC50 in experiment [1] came out at 7 nM; in experiment [2] it was 678 nM; in experiment [3], 373 nM.

`COC(=O)N1CC[C@H](N2CCC(c3nn(C)c4ccc(-c5nc6cc(C)c([C@H](OC(C)(C)C)C(=O)O)c(-c7ccc(Cl)cc7)c6s5)nc34)CC2)C1` [Compound 193, (S)-2-(tert-butoxy)-2-(7-(4-chloro-phenyl)-2-(3-(1-((S)-l-(methoxy-carbonyl)pyrrolidin-3-yl)piperidin-4-yl)-1-methyl-1H-pyrazolo[4,3-b]pyridin-5-yl)-5-methylbenzo[d]thiazol-6-yl) acetic acid]: the EC50 in experiment [1] is 3 nM; in experiment [2], 265 nM; in experiment [3] it was 87 nM.

For the compound `CCn1nc(C2CCN([C@H]3CCN(C(=O)OC)C3)CC2)c2cc(-c3nc4cc(C)c([C@H](OC(C)(C)C)C(=O)O)c(-c5ccc(Cl)cc5)c4s3)ccc21` [Compound 49, (S)-2-(tert-butoxy)-2-(7-(4-chlorophenyl)-2-(1-ethyl-3-(1-((S)-1-(methoxycarbonyl)pyrrolidin-3-yl)piperidin-4-yl)-1H-indazol-5-yl)-5-methylbenzo[d]thiazol-6-yl)acetic acid], the results for the EC50 in experiment [1], in experiment [2] and in experiment [3] were 4 nM, 286 nM and 79 nM, respectively.

As to `COC(=O)N1CC[C@@H]1CN1CCC(c2nn(C)c3ccc(-c4nc5cc(C)c([C@H](OC(C)(C)C)C(=O)O)c(-c6ccc(Cl)cc6)c5s4)cc23)CC1` [Compound 5, (S)-2-(tert-butoxy)-2-(7-(4-chlorophenyl)-2-(3-(1-(((R)-1-(methoxycarbonyl)azetidin-2-yl)methyl)piperidin-4-yl)-1-methyl-1H-indazol-5-yl)-5-methylbenzo[d]thiazol-6-yl)acetic Acid], the EC50 in experiment [1] was found to be 3 nM; in experiment [2], 169 nM; in experiment [3], 106 nM.

On to `CO[C@H]1CCN(c2nn(C)c3ccc(-c4nc5cc(C)c([C@H](OC(C)(C)C)C(=O)O)c(-c6ccc(Cl)cc6)c5s4)cc23)C1` [Compound 139, (S)-2-(tert-butoxy)-2-(7-(4-chloro-phenyl)-2-(3-((S)-3-methoxy-pyrrolidin-1-yl)-1-methyl-1H-indazol-5-yl)-5-methylbenzo[d]thiazol-6-yl) acetic acid], for which the EC50 in experiment [1] worked out at 88 nM; in experiment [2], 5780 nM; in experiment [3], 7810 nM.

`Cc1cc2nc(-c3ccc4c(c3)c(C3CCN(C(C)C)CC3)nn4C)sc2c(-c2ccc(Cl)cc2)c1[C@H](OC(C)(C)C)C(=O)O` [Compound 127, (S)-2-(tert-butoxy)-2-(7-(4-chloro-phenyl)-2-(3-(1-isopropylpiperidin-4-yl)-1-methyl-1H-indazol-5-yl)-5-methylbenzo[d]thiazol-6-yl) acetic acid]: the EC50 in experiment [1] came out at 8 nM; in experiment [2] it was 1700 nM; in experiment [3] it was 932 nM.

A word on the EC50: it is the concentration giving half of the maximal effect.
